We go through five molecules from patent US12168037B2, “Intracellular IL-1 alpha peptide methods and compositions” (CEDARS-SINAI MEDICAL CENTER, priority 2018, dated 2024).

Residue numbers refer to the chain shown, from its start. Peptide text beside a SMILES is read from it. * marks the point of attachment. Cbz = O=C(OCc1ccccc1)*

The subject of one assay is S87A-IL-1α protein. The assay can be described thus: S87A-IL-1α protein stability in stably transfected 293 cells (western blot). It is filed as cell-based, human. The conditions noted are these: 293 cells stably expressing S87A-IL-1α, MG132 5 hours vs DMSO. The procedure:
FIGS. 1A-1C depict in accordance with various embodiments of the invention, that serine phosphorylation is required for IL-1α protein stability. FIG. 1A) Relative expression of IL-1α mRNA by qPCR. FIG. 1B) Western Blot of IL-1α protein level in cell lysates. FIG. 1C) Western blot of IL-1α in cell lysates of cells treated with DMSO or MG132 for 5 hours.
Human IL-1α is phosphorylated at the serine 87 (S87) residue (mouse equivalent to S90) of the N-terminal pro-piece by protein kinase A (PKA). […] IL-1α phosphorylation is required for its membrane localization. A mutant IL-1α plasmid cDNA was made for studying the role of IL-1α subcellular localization: the Serine at 87 was exchanged with Alanine (S87A) using the QuikChange Site-Directed Mutagenesis kit, Cat #200518 and human pCMV-IL-1α-flag plasmid DNA (Sino Biological Inc. Cat #HG10128-M-F). Primers were designed by the QuikChange Primer Design software program.
Wild-type (WT)-IL-1α or mutant S87A-IL-1α plasmid was transfected into 293 cells and stable expressing cells lines were made. These cells express similar levels of IL-1α mRNA (FIG. 1A). IL-1α protein was detected only in WT-IL-1α transfected cells but not mutant S87A-IL-1α transfected cells (FIG. 1B). […] Based on this finding, a pseudosubstrate peptide was made to inhibit IL-1α phosphorylation, which may provide a more convenient way to control IL-1α during inflammation. […]
In general terms: A western blot detects proteins with antibodies after separation by electrophoresis.

Assay [1] in a line: Membrane lipid strip binding (ECL detection). The note with it: membrane lipid strips incubated with peptide (5 μg) or recombinant protein. The procedure:
FIGS. 12A-12F depict in accordance with various embodiments of the invention, that the iIL-1α-peptide reduces cutaneous melanoma tumor. FIG. 12A-12B) Membrane lipid strips were incubated with (5 μg) SPDIA or Control peptide and detected by ECL. FIG. 12C) B16 or YUMM1.7 cells were treated with SPDIA or Control peptide (40 μg/ml) for 5 h, and pAkt1 and Akt1 in cell lysate were determined by WB. FIG. 12D) Experimental scheme. FIG. 12E) tumor pictures. FIG. 12F) Quantification of tumor volume, ** p<0.05. and Quantification of tumor mass, ** p<0.05. n=5.
FIGS. 14A-14C show intracellular IL-1α reduced Akt1 activation. FIG. 14A) pAkt1 and total Akt1 in cell lysate was determined by WB. FIG. 14B) Membrane lipid strip was incubated with recombinant human proIL-1α. IL-1α was detected by ECL system. FIG. 14C) PIP3 and Na, K-ATPase levels in plasma membrane fraction were determined by WB.
Intracellular IL-1α reduced Akt1 activation.
IL-1α pro-piece reduces melanoma tumor progression. To investigate the suppressive effect of intracellular proIL-1α in melanoma tumor progression, we designed a short Peptide Derived from IL-1A pro-piece (SPDIA) “GKVLKKRRLSL” (SEQ ID NO:1).

In another assay the test system is IL-1α protein. The assay can be described thus: IL-1α protein level in LPS-stimulated peritoneal macrophages (western blot). It is filed as cell-based. The conditions noted are these: peritoneal macrophages pretreated with peptide 1 hour, stimulated with LPS (3 hours), compared to LPS alone. The procedure: FIG. 2 depicts in accordance with various embodiments of the invention, that TAT-IL-1α peptide diminished IL-1α protein level. Peritoneal macrophages were pretreated with TAT-IL-1α or TAT-control peptides for 1 hour and stimulated with LPS (3 hours). The IL-1α protein level in cell lysate was detected by Western Blot. GAPDH was measured as a loading control.
The inventors investigated whether TAT-IL-1α peptide triggers IL-1α protein degradation by reducing its serine phosphorylation. Peritoneal macrophages were pretreated with TAT-IL-1α or TAT-Control peptides for 1 hour, stimulated with LPS, and the IL-1α protein level in whole cell lysate was detected by western blot (WB) (FIG. 2). The IL-1α protein level was decreased in TAT-IL-1α treated cells.

Another assay relates to hexokinase 2 (HK-2). Briefly: HK-2 mitochondrial/cytosolic fraction level in melanoma cells by western blot. It is filed as cell-based, mouse. The note with it: B16 or Yumm 1.7 cells, 40 μg/ml, 5 hours, vs TAT-Control.
Another assay addresses T1, Akt1 (Mus musculus, UniProt P31750).
T1 construct: endogenous in cells
Briefly: Akt1 activation (pAkt1) in melanoma cells by western blot. It is filed as cell-based. The note with it: B16 or Yumm 1.7 murine melanoma cells, TAT-IL-1α 40 μg/ml, 5 hours, vs TAT-Control peptide. The procedure: FIG. 3 depicts in accordance with various embodiments of the invention, that TAT-IL-1α peptide diminished Akt1 activation and increased HK-2 mitochondrial dissociation. B16 or Yumm 1.7 murine melanoma cells were treated with TAT-IL-1α (40 μg/ml) or TAT-Control peptide for 5 hours. HK-2 level and pAkt1 activation in the cytosolic and mitochondrial fraction were detected by Western Blot. GAPDH was measured as a loading control.
FIGS. 10A-10C depict in accordance with various embodiments of the invention, the iIL-1α-peptide reduces Akt1 activation and glycolysis in melanoma cells. […] FIG. 10B) HK-2 and pAkt1 in cytosolic and mitochondrial fraction were determined by WB. […] FIG. 10C) Extracellular acidification rate (ECAR) was measured by Seahorse and compared over time in PBS and iIL-1α-peptide treated mice.
FIGS. 12A-12F depict in accordance with various embodiments of the invention, that the iIL-1α-peptide reduces cutaneous melanoma tumor. FIG. 12A-12B) Membrane lipid strips were incubated with (5 μg) SPDIA or Control peptide and detected by ECL. FIG. 12C) B16 or YUMM1.7 cells were treated with SPDIA or Control peptide (40 μg/ml) for 5 h, and pAkt1 and Akt1 in cell lysate were determined by WB. […] FIG. 12F) Quantification of tumor volume, ** p<0.05. and Quantification of tumor mass, ** p<0.05. n=5. […]

A further assay has as its system B16 melanoma cells. The assay can be described thus: B16 melanoma lung metastasis/colonization model (tail vein injection). The note with it: vs TAT-Control peptide; for melanoma (lung) metastasis: B16 cells i.v. in female WT mice, peptide i.v. five days later, lungs harvested five days post treatment. It is filed as in vivo, mouse. From the text:
FIGS. 4A-4C depict in accordance with various embodiments of the invention, that TAT-IL-1α peptide reduced lung metastasis. FIG. 4A) Experimental Schematic (top), metastatic lungs (bottom images). FIG. 4B) Quantification of tumor number in TAT-Control and TAT-IL-1α. FIG. 4C) Melanin content of the metastatic lungs in TAT-Control and TAT-IL-1α.
FIGS. 11A-11C depict in accordance with various embodiments of the invention, that the iIL-1α-peptide reduces melanoma colonization in the lung. FIG. 11A) Experimental scheme and representative lung pictures. FIG. 11B) Quantification of tumor number, **p<0.01. FIG. 11C) Quantification of melanin content, *p<0.05. n=4.
The B16 (also referred herein as “B16F10”) mouse melanoma metastasis model is widely accepted, as B16 cells injected via tail vein reliably colonize the lungs, with easily identifiable tumors after 7-14 days. While the use of a genetic melanoma model may be ideal, it requires the use of immunodeficient mice or the complicated and expensive humanized mice. While the B16 model may have its known caveats, it has repeatedly given very useful novel mechanistic clues that can be further tested in more relevant models, such as genetically engineered mice. In addition to the B16 model, a mouse melanoma cell line with human genetic drivers that are more relevant to human melanoma formation and progression were also used. To this effect, a non-immunogenic cell line (YUMM1.7) was used. In the YUMM1.7 cells, nearly 50% of human melanomas harbor a gain of function in the Braf^V600E Cdkn2a−/− Pten−/− mutations and they form reliable lung tumors following tail vein injection (5×10^5, in 3 weeks). Other common mutations in human melanoma include CDKN2A (familial melanoma gene), inactivation of tumor suppressors including INK4A, ARF, p53, and PTEN, as well as mutations in proto-oncogenes such as H-RAS, N-RAS, and K-RAS.
The peptides were subsequently tested in vivo. B16 melanoma cells were intravenously (i.v.) injected in the tail vein of female WT mice. Five days later, TAT-IL-1α or TAT-Control peptide was injected in the tail vein (i.v.). Five days post treatment, lungs were harvested and examined for metastasis. […] The tumor number and melanin content were diminished in the TAT-IL-1α treatment group compared to TAT-Control peptide treatment. (FIGS. 4B and 4C).
The mouse models used were C57Bl/6 WT or Il1α−/− mice injected with B16 cells (2×10^5 tail vein), (3×10^5 subcutaneous) or C57Bl/6 WT mice injected with YUMM1.7 cells (5×10^5 subcutaneous). The IL-1α, pAkt1 and HK-2 levels were determined by WB. The glycolytic rate in B16 cells was measured by Seahorse.
The iIL-1α-peptide reduces tumor burden in vivo. The protective role of the iIL-1α-peptide against melanoma colonization was investigated. […] The mice were analyzed 5 days later.

Where [2] appears, read: B16 i.v. model, peptide i.v. day 5.

T1 sequence (P31750 whole entry): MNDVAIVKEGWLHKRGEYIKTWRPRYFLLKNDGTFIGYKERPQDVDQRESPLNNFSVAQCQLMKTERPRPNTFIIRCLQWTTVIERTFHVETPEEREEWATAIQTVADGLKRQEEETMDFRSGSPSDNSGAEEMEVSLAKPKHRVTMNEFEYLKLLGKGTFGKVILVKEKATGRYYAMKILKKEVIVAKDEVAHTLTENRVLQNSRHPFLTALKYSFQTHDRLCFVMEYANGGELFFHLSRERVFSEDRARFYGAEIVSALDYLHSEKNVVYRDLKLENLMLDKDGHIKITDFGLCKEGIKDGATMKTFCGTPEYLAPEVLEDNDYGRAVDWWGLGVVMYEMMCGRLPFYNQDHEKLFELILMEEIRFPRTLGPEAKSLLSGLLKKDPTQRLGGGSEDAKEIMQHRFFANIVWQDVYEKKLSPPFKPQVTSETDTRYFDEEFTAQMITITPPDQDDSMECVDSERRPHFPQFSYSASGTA
Protocol for hexokinase 2 (HK-2): B16 cells isolated from tumors from WT mice were treated with iIL-1α-mimic peptide (iIL-1α-peptide) (40 μg/ml) or PBS for 5 hours. […] FIG. 10B) HK-2 and pAkt1 in cytosolic and mitochondrial fraction were determined by WB. COX-IV and GAPDH was used as a loading controls.
B16 cells were isolated from WT mice and cultured in-vitro. The cells were treated with the iIL-1α-mimic peptide (iIL-1α peptide) or PBS for 5 hours (FIG. 10).
B16 or Yumm1.7 melanoma cells were treated with PBS or iIL-1α-peptide (40 μg/ml) for 5 hours, and HK-2 levels and Akt1 activation in the mitochondrial and cytosolic fraction were determined by western blot.

As to `CC(C)C[C@@H](C=O)NC(=O)[C@H](CC(C)C)NC(=O)[C@H](CC(C)C)NC(=O)OCc1ccccc1` [MG132] (Cbz-Leu-Leu-Leu-aldehyde), in the assay with S87A-IL-1α protein, the “S87A-IL-1α protein in cell lysate” value is recorded as “clearly detected”.

As for “GKVLKKAALSL [control peptide, SPDIA with arginine residues replaced by alanine, reference compound]”, the “interaction with phosphoinositides on membrane lipid strip” value in assay [1] is “fails to bind with PIP and PIP2”.

As for “YGRKKRRQRRRLAKARLAL [TAT-Control peptide, control peptide for TAT-IL-1α peptide, reference compound]”, the “IL-1α protein level in whole cell lysate” value with IL-1α protein was “slightly decreased”.

For the molecule YGRKKRRQRRRLKKRRLSL [TAT-IL-1α peptide], the HK-2 mitochondrial dissociation entry with hexokinase 2 (HK-2) is on record as “increased”. Moreover, the HK-2 mitochondrial translocation result in the assay with hexokinase 2 (HK-2) is reported as “diminished”. The “Akt1 activation (pAkt1)” value in the assay with Akt1 is recorded as “diminished”; with Akt1 (listed as TAT-IL-1α) it was “significantly inhibited”. Also, the “IL-1α protein level in whole cell lysate” value in the assay with IL-1α protein is recorded as “diminished”; in the assay on IL-1α protein (listed as TAT-IL-1α) it was “decreased”. Besides, the “melanoma (lung) metastasis” value is on record as “reduced” in the assay on B16 melanoma cells and “significantly reduced” with B16 melanoma cells (listed as TAT-IL-1α). The “melanin content of the metastatic lungs” value in the assay on B16 melanoma cells (setting [2]) was “diminished”. Further, in the assay with B16 melanoma cells (setting [2]), the “tumor number (metastatic lungs)” value is recorded as “diminished”.

B1: proIL-1α: recombinant human proIL-1α incubated with membrane lipid strip (protein, UniProt P01583 1-271, looked up)
pro-form: MAKVPDMFEDLKNCYSENEEDSSSIDHLSLNQKSFYHVSYGPLHEGCMDQSVSLSISETSKTSKLTFKESMVVVATNGKVLKKRRLSLSQSITDDDLEAIANDSEEEIIKPRSAPFSFLSNVKYNFMRIIKYEFILNDALNQSIIRANDQYLTAAALHNLDEAVKFDMGAYKSSKDDAKITVILRISKTQLYVTAQDEDQPVLLKEMPEIPKTITGSETNLLFFWETHGTKNYFTSVAHPNLFIATKQDYWVCLAGGPPSITDFQILENQA
modifications: pro-form
notes: recombinant human proIL-1α incubated with membrane lipid strip
As for B1, the “interaction with phosphoinositides on membrane lipid strip” value in assay [1] is “interaction with phosphoinositides such as PI(4)P (PIP), PI(4,5)P2 (PIP2) and PI(3,4,5)P3 (PIP3)”.
